Assay results taken from patent publication US5449674A, “2-,3-,5-, and/or 8-substituted dibenzoxazepine compounds, pharmaceutical compositions and methods for treating pain” (G. D. Searle & Co., priority 1994, dated 1995).
≈ marks a conversion by molar mass, not a printed value. Structures can show the parent of a compound that is named as a salt. Where two headings read alike, the source gives them in different places.

Assays:
[1] = biological target: T1, prostaglandin E2-induced contractions of segments of guinea pig ileum (Cavia porcellus, UniProt A0A286XHJ6); experiment: Prostaglandin (PGE) Antagonism Assay; type: cell-based; settings: isolated ileum, 37° C., read-out: PGE in guinea pig ileum pA2 (converted)
T1 construct: Segments of ileum about 2 cm long were then cut and mounted in a 10 mL tissue bath; from tissue; host or cells: guinea pig ileum segments
T1 sequence (A0A286XHJ6 1-405): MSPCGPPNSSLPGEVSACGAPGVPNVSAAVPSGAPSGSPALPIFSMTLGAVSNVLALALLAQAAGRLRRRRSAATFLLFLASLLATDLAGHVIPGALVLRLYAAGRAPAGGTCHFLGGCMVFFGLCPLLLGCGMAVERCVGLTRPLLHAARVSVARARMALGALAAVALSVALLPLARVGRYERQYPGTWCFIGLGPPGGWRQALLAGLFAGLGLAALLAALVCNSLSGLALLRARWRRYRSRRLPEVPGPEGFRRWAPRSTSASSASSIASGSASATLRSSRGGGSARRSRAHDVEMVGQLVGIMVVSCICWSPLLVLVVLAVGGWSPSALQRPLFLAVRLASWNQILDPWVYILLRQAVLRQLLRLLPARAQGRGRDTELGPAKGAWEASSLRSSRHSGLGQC
Description: In order to determine the effectiveness of several of the compounds of the present invention ("test compounds") as prostaglandin E2 antagonists,a prostaglandin antagonism assay was conducted, as described below, to determine the ability of these compounds to inhibit prostaglandin E2 -induced contractions of segments of guinea pig ileum.
Male albino guinea pigs weighing 200 to 500 grams were sacrificed by cervical dislocation. The ilea were then quickly removed from the guinea pigs and placed in a modified Tyrode solution, a solution which is known to those skilled in the art, containing one-half of the usual amount of magnesium ions.
Segments of ileum about 2 cm long were then cut and mounted in a 10 mL tissue bath containing the modified Tyrode solution. The solution was maintained at 37° C. and aerated with a gaseous mixture of 95% oxygen and 5% carbon dioxide. Data for a control prostaglandin E2 dose response curve plotting concentration of prostaglandin E2 versus the intensity of contractions, detected isotonically, was then obtained by experimentally adjusting the dose of the prostaglandin E2 being injected into the tissue bath, in a manner known by those of skill in the art. […]
A dose ratio of EC50 doses was then calculated from the results of each test in a manner known by those of skill in the art. […]

water solubility = type: physicochemical; settings: for solubility: water
Description: The title compound was determined to have a high water solubility (>80 mg/mL) by methods known by those of skill in the art.

[2] = system: phenylbenzoquinone (PBQ)-induced writhing in mice; experiment: Writhing Assay (PBQ-induced writhing, analgesic activity in mice); type: in vivo, Charles River male albino mice; settings: for ED50: Mus musculus; for Writhing assay, number of mice out of nine or ten in which the test compound produced analgesia, I.G. / Writhing assay, number of mice out of nine or ten in which the test compound produced analgesia, S.C.: 30 mg/kg, PBQ i.p. 30 min later
Excerpt: The Writhing Assay is one of the most widely-used experimental procedures for measuring the analgesic activity of different narcotic and nonnarcotic analgesic agents, and involves the continuous, chemically-induced pain of visceral origin to an animal, such as a mouse or rat. [Gyires et al., Arch. int. Pharmacodyn, 267, 131-140 (1984); C. Vander Wende et al., Fed. Proc., 15, 494 (1956); Koster et al., Fed. Proc., 18, 412 (1959); and Witken et al., J. Pharmacol. exp. Ther., 133, 400-408 (1961).]Chemicals which may be used to induce this pain include phenylbenzoquinone (PBQ) and acetic acid. As a result of the chemical irritation to the animal, a characteristic stretching and writhing of the animal (dorsiflexion of the animal's back, extension of its hindlimbs and the strong contraction of its abdominal musculature) will generally occur. […] Drugs which reduce the number of writhes of the animal appear to restore the normal nociceptive threshold of the animal.
Charles River male albino mice, weighing 20 to 30 grams, were used in this assay.
Thirty minutes after subcutaneous or intragastric administration to ten mice of 30 mg per kilogram of body weight of a compound of the present invention ("test compound"), […] per 10 g of body weight of a 0.025% w/v solution of PBQ was injected intraperitoneally into each mouse. Ten mice which were given saline in place of a test compound of the invention were used as a control group.
Five minutes later, each mouse was individually placed into a glass beaker for observation, and the number of writhes occurring during the following ten-minute period was counted.
A test compound was considered to have produced analgesia in a mouse if, in accordance with the conditions set forth above, and under the test criteria employed for this assay, after the administration of 30 mg per kilogram of body weight of a compound of the present invention to the mouse, the number of writhes elicited by a mouse injected with PBQ was equal to, or less than, one-half the median number of writhes recorded for the saline-treated control group of mice that day, as described by Taber in "Predictive Value of Analgesic Assays in Mice and Rats," Advances in Biochemical Psychopharmacology, 8, 191 (1974).
The results for the particular compounds of the present invention analyzed in this assay, and discussed in the examples identified below which correspond thereto, are presented in Table I hereinbelow as fractions under the heading "WRITHING ASSAY." The fractions indicate the number of mice, out of ten, in which the test compound produced analgesia.
The standard initial screening dose of a test compound employed in this assay was […] for both routes of administration. If this initial screening dose of the test compound produced analgesia in seven of ten mice, then the effect of additional doses of the test compound on the writhing response was evaluated, and then the ED50 dose was generally calculated. (The slopes of the dose-response curves for all test compounds analyzed were compared as described by Tallarida and Murray, Manual of Pharmacologic Calculations, Page 11 (Springer Verlag, New York, 1981)).

micturition reflex = settings: urethane-anesthetized rats; cited from earlier work
[3] = system: prostaglandins, isolated smooth muscle preparations; settings: cited from earlier work

SMILES | Writhing assay, number of mice out of nine or ten in which the test compound produced analgesia, I.G. ([2]; intragastric) | Writhing assay, number of mice out of nine or ten in which the test compound produced analgesia, S.C. ([2]; subcutaneous) | further results
CN(C)CCNC(=O)/C=C/C(=O)N1Cc2ccccc2Oc2ccc(Cl)cc21 [Example 8, 4-(8-chloro-10,11-dihydrodibenz[b,f]oxazepin-10-yl) -N-[2-(dimethylamino)ethyl]-4-oxo-2E-butenamide, monohydrochloride] | – | – | Kb [1]: 1860 nM; water solubility (in words) (water solubility): highly water soluble; solubility (water solubility): > 80000 µg/mL; ED50 ([2]; po, intragastric, read-out: Writhing assay ED50 Dose, I.G.): 8.3 mg/kg; ED50 ([2]; sc, subcutaneous, read-out: Writhing assay ED50 Dose, S.C.): 8.3 mg/kg; Writhing Assay potency ranking (in words) ([2]; among compounds tested): most potent compound of the invention tested in this assay
CCCCNC(=O)/C=C\C(=O)N1Cc2ccccc2Oc2ccc(Cl)cc21 [Example 5] | 4/10 | 6/10 | –
O=C(O)/C=C\C(=O)N1Cc2ccccc2Oc2ccc(Cl)cc21 [Example 2, 4-(8-chloro-10,11-dihydrodibenz[b,f]-oxazepin-10-yl)-4-oxo-2Z-butenoic acid] | 1/10 | 4/10 | –
CCS(=O)(=O)CCC(=O)NNC(=O)N1Cc2ccccc2Oc2ccc(Cl)cc21 [8-chlorodibenz[b,f][1,41oxazepine-10(11H)-carboxylic acid, 2-[3(ethylsulfonyl)-1-oxopropyl]hydrazide, reference compound] | – | – | solubility (water solubility; comparison compound): 80 µg/mL (≈ 183 µM)
COC(=O)/C=C/C(=O)N1Cc2ccccc2Oc2ccc(Cl)cc21 [Example 7, Methyl 4-(8-chloro-10,11-dihydrodibenz[b,f]-oxazepin-10-yl)-4-oxo-2E-butenoate] | 3/10 | 6/9 | –
CCCCOC(=O)/C=C\C(=O)N1Cc2ccccc2Oc2ccc(Cl)cc21 [Example 3, Butyl 4-(8-chloro-10,1! -dihydrodibenz[b,f]-oxazepin-10-yl)-4-oxo-2Z-butenoate] | 6/10 | 4/10 | –
CN(C)CCNC(=O)CCC(=O)N1Cc2ccccc2Oc2ccc(Cl)cc21 [Example 10, 8-chloro-N-[2-(dimethylamino)ethyl]-γ-oxodibenz [b,f][1,4]oxazepine-10(11)-butanamide] | 6/9 | – | –
CCCCOC(=O)/C=C/C(=O)N1Cc2ccccc2Oc2ccc(Cl)cc21 [Example 4, Butyl 4-(8-chloro-10,11-dihydrodibenz[b,f]-oxazepin-10-yl)-4-oxo-2E-butenoate] | 6/10 | 6/10 | –
CC(=O)NNC(=O)N1Cc2ccccc2Oc2ccc(Cl)cc21 [SC-19220] | – | – | bladder capacity (in words) (micturition reflex): increased the bladder capacity; voiding efficiency of micturition (in words) (micturition reflex): reduced the voiding efficiency of micturition; inhibition of stimulant actions of prostaglandins (in words) [3]: inhibit the stimulant actions of prostaglandins on isolated smooth muscle preparations
O=C(CCC(=O)N1Cc2ccccc2Oc2ccc(Cl)cc21)NCc1ccncc1 [Example 9, 8-chloro-γ-oxo-N-(4-pyridinylmethyl)dibenz[b,f]-[1,4]oxazepine-10(11)-butanamide] | 6/10 | – | Kb [1]: 2400 nM
O=C(Cc1ccccc1)NNC(=O)N1Cc2ccccc2Oc2ccc(Cl)cc21 [SC-18637] | – | – | inhibition of stimulant actions of prostaglandins (in words) [3]: inhibit the stimulant actions of prostaglandins on isolated smooth muscle preparations
